Paper PMC5562778 (Archives of Toxicology, 2017)

Assays:
[1] = tested on: Caucasian liver microsomes; assay: Microsomal conversion of estragole by Caucasian liver microsomes (NADPH); format: in vitro ADME, human
Experimental: (§1) The incubation mixtures contained (final concentrations) 3 mM NADPH and 1 mg/mL microsomal protein in 0.2 M Tris–HCl (pH 7.4). Incubations were performed for 10 min at substrate concentrations ranging from 25 to 1000 μM, after which the reaction was terminated by adding 25 μL ice-cold acetonitrile. Blank incubations were performed in the absence of the cofactor NADPH. All incubations were performed in triplicate. In the supporting materials 2, detailed information can be found (Table S1 can be used to keep track of detailed information).
Before UPLC analysis, all samples were centrifuged for 5 min at 16,000 g to precipitate microsomal proteins. Supernatant of each sample was analyzed on UPLC using a BEH C18 (1.7 μm, 2.1 × 50 mm) column with a guard column and a diode array detector (Acquity, Waters). […] Table S1 can be used to keep track of detailed information. […] 3′-Hydroxyanethole was quantified by comparison of the peak areas of the metabolite in the chromatograms obtained at a wavelength of 206 nm to the calibration curve of the synthesized reference compound (Agharahimi and LeBel [1995]; Drinkwater et al. [1976]; Iyer et al. [2003]; Luo et al. [1992]).
(§2) The apparent maximum velocity (V max) and the apparent Michaelis–Menten constant (K m) were determined by fitting the data to this equation using GraphPad Prism version 5.0 (GraphPad software, San Diego California USA).
(§3) The incubation mixtures contained (final concentrations) 3 mM NADPH and 1 mg/ml microsomal protein in 0.2 M Tris-HCl (pH 7.4). […] Incubations were performed for 10 min at substrate concentrations ranging from 25 to 1000 μM, after which the reaction was terminated by adding 25 μl ice-cold acetonitrile. […] Blank incubations were performed in the absence of the cofactor NADPH. All incubations were performed in triplicate.
The flow rate was 0.6 ml/min and the gradient started with 100 % ultrapure water. After 1 min, the amount of acetonitrile was increased to 10 % and kept at that level for 1 min, after which the percentage of acetonitrile was increased to 35 % in 2.5 min and then increased to 100 % over 0.5 minute and kept at 100 % acetonitrile for another 1 min, and finally back to the starting conditions.

[2] = tested on: Chinese liver microsomes; assay: Microsomal conversion of estragole by Chinese liver microsomes (NADPH)
Experimental: as §1
Before UPLC analysis, all samples were centrifuged for 5 min at 16,000 g to precipitate microsomal proteins. Supernatant of each sample was analyzed on UPLC using a BEH C18 (1.7 μm, 2.1 × 50 mm) column with a guard column and a diode array detector (Acquity, Waters). […] Table S1 can be used to keep track of detailed information.
as §2, §3
The flow rate was 0.6 ml/min and the gradient started with 100 % ultrapure water.

[3] = tested on: Chinese liver S9; assay: Sulfation of 1′-hydroxyestragole by Chinese liver S9 (PAPS, GSH trapping); format: in vitro ADME, human
Experimental: (§4) The formation of 1′-sulfooxyestragole was determined by incubating 0.2 mg/mL pooled mixed gender Chinese or Caucasian liver S9 in the presence of 0.2 mM PAPS as cofactor and 10 mM GSH as trapping agent for the reactive 1′-sulfooxyestragole in 0.1 M potassium phosphate (pH 8.0). The incubations were carried out for 2 h, and the reactions were terminated by adding 25 μL ice-cold acetonitrile. The blank samples were performed without cofactor. All incubations were performed in triplicate. In the supporting materials 2, detailed information can be found (Table S1 can be used to keep track of detailed information).
(§5) Before UPLC analysis, all samples were centrifuged for 5 min at 16, 000 g to precipitate microsomal or cytosolic proteins. Supernatant of each sample was analyzed on UPLC using a BEH C18 (1.7 μm, 2.1 × 50 mm) column with a guard column and a diode array detector (Acquity, Waters). Secondary metabolism of 1′-hydroxyestragole includes glucuronidation, oxidation, and sulfation. The gradient of analysis of the metabolites of 1′-hydroxyestragole can be found in supporting materials 2. Table S1 can be used to track more detailed information.
(§6) Since the UV spectrum of 3′-hydroxyanethole is similar to that of the GSH adduct of 1′-sulfooxyestragole, quantification of 1′-sulfooxyestragole could be achieved by comparing the peak area of the GSH adduct of 1′-sulfooxyestragole to the calibration curve of 3′-hydroxyanethole at a wavelength 260 nm as described for the quantification of 1′-sulfooxysafrole and 1′-sulfooxyelemicin (Martati et al. [2012]; Van den Berg et al. [2012]). The amount of 1′-sulfooxyestragole GSH adduct formed was corrected for the amount detected in the blank samples performed without the respective cofactor PAPS.
as §2
(§7) The formation of 1'-sulfooxyestragole was determined by incubating 0.2 mg/ml pooled mixed gender Chinese or Caucasian liver S9 in the presence of 0.2 mM PAPS as cofactor and 10 mM GSH as trapping agent for the reactive 1'-sulfooxyestragole in 0.1 M potassium phosphate (pH 8.0). The final volume of the incubations was 100 μl with the substrate 1'-hydroxyestragole ranging from 15 to 2000 μM added from 100 times concentrated stock solutions in DMSO. As previously described by Martati et al. (Martati et al. 2011) and Al-Subeihi et al. (Al-Subeihi et al. 2011), the reactions were started by adding substrate after a pre-incubation at 37 °C for 1 min. The incubations were carried out for 2 hours and the reactions were terminated by adding 25 μl ice-cold acetonitrile. […] The blank samples were performed without cofactor. All incubations were performed in triplicate.
(§8) For detection of the GSH conjugate of 1'-sulfooxyestragole, the flow rate was 0.6 ml/min and the mobile phase was made with acetonitrile and ultrapure water with 0.1 % (v/v) TFA. A linear gradient started from 20 to 30 % acetonitrile in 4.5 min, after which the percentage of acetonitrile was increased to 100 % in 0.3 min and kept at 100 % for another 0.2 min and finally set back to the starting condition.

[4] = tested on: Caucasian liver S9; assay: Sulfation of 1′-hydroxyestragole by Caucasian liver S9 (PAPS, GSH trapping); format: in vitro ADME, human
Experimental: as §4, §5, §6, §2, §7, §8

[5] = tested on: SULT; assay: SULT mediated conversion of 7-hydroxycoumarin to 7-hydroxycoumarin sulfate, liver S9; format: in vitro ADME, human
Experimental: The quality of the Chinese and Caucasian liver microsomes was checked by measuring the activity of CYP1A2 and CYP2A6 by the method of Yang et al. ([2012]). The quality of Chinese and Caucasian liver S9 samples was checked by measuring the SULT activity based on the method provided by Wang et al. ([2006]). The details of the methods for the microsomal and S9 in vitro incubations and UPLC analysis for assessing the metabolic capabilities of CYP and SULT enzymes can be found in the supporting materials 1.
Before UPLC analysis, all samples were centrifuged for 5 min at 16, 000g to precipitate microsomal or cytosolic proteins. Supernatant of each sample was analyzed on UPLC using a BEH C18 (1.7 μm 2.1×50 mm) column with a guard column and a diode array detector (Acquity, Waters).

[6] = formation of the metabolite from estragole, Caucasian liver microsomes, average ± SEM
[7] = formation of the metabolite from estragole, Chinese liver microsomes, average ± SEM
[8] = in vitro, liver microsomes, conversion of estragole
[9] = formation from 1′-hydroxyestragole (sulfation), Chinese liver S9
[10] = formation from 1′-hydroxyestragole (sulfation), Caucasian liver S9

C=CC(O)c1ccc(OC)cc1 (centres unmarked) [1′-Hydroxyestragole]
Catalytic efficiency (scaled V max / K m) ([1]; formation from estragole, Caucasian, scaled to liver): 40.3 µL/h/g liver
Scaled V max ([1]; formation from estragole, Caucasian, scaled with microsomal protein yield 35 mg/(g tissue)): 2.5 µmol/h/g liver
Catalytic efficiency (V max/K m × 1000) ([1]; formation of the metabolite from estragole, Caucasian liver microsomes): 19.3 µL/min/mg microsomal or S9 protein
K m [1, 6]: 62 ± 9 µM
V max [1, 6]: 1.19 ± 0.04 nmol /min/mg microsomal or S9 protein
Catalytic efficiency (scaled V max / K m) ([2]; formation from estragole, Chinese, scaled to liver): 15.0 µL/h/g liver
Scaled V max ([2]; formation from estragole, Chinese, scaled with microsomal protein yield 35 mg/(g tissue)): 0.7 µmol/h/g liver
K m [2, 7]: 49 ± 8 µM
V max [2, 7]: 0.35 ± 0.01 nmol /min/mg microsomal or S9 protein
Catalytic efficiency for formation of the metabolite, lower in Chinese than in Caucasian samples [2, 8]: 2.4 fold
V max for formation of the metabolite, lower in Chinese than in Caucasian samples [2, 8]: 3.4 fold
V max, lower in Chinese than in Caucasian liver incubations ([2]; scaled kinetic constants (Table 3), conversion of estragole): 3.5 fold
Scaled catalytic efficiency for sulfation, lower for Chinese than Caucasian samples ([3]; scaled to liver, sulfation of 1′-hydroxyestragole to 1′-sulfooxyestragole): 4.5 fold

C=CC(OS(=O)(=O)O)c1ccc(OC)cc1 (centres unmarked) [1′-Sulfooxyestragole]
Catalytic efficiency (V max/K m × 1000) [3, 9]: 0.0021 µL/min/mg microsomal or S9 protein
K m [3, 9]: 694 ± 321 µM
V max [3, 9]: 0.0014 ± 0.0002 nmol /min/mg microsomal or S9 protein
Catalytic efficiency for formation of 1′-sulfooxyestragole, lower in Chinese than in Caucasian samples ([3]; in vitro, sulfation of 1′-hydroxyestragole, liver S9): fivefold
Scaled V max ([3]; sulfation of 1′-hydroxyestragole, Chinese, S9 protein yield 143 mg/(g tissue)): 0.01 µmol/h/g liver
Catalytic efficiency (scaled V max / K m) ([3]; sulfation of 1′-hydroxyestragole, Chinese, scaled to liver): 0.02 µL/h/g liver
Catalytic efficiency (V max/K m × 1000) [4, 10]: 0.01 µL/min/mg microsomal or S9 protein
K m [4, 10]: 423 ± 159 µM
V max [4, 10]: 0.004 ± 0.0005 nmol /min/mg microsomal or S9 protein
Scaled V max ([4]; sulfation of 1′-hydroxyestragole, Caucasian, S9 protein yield 143 mg/(g tissue)): 0.03 µmol/h/g liver
Catalytic efficiency (scaled V max / K m) ([4]; sulfation of 1′-hydroxyestragole, Caucasian, scaled to liver): 0.08 µL/h/g liver

O=c1ccc2ccc(O)cc2o1 [7-hydroxycoumarin]
Vmax for SULT mediated conversion, both ethnic groups compared ([5]; Chinese and Caucasian liver S9): similar
Km at 10 min ([5]; human, pH 7.4, Chinese liver S9): 1.7 µM
